Test results from patent US9695155B2, “Herbicidal substituted pyrimidinyloxy benzene compounds” (E. I. DU PONT DE NEMOURS AND COMPANY, priority 2013, dated 2017).

Columns and labels:
Assay in all cases: Test E preemergence
arrowleaf sida = format: in vivo, Sida rhombifolia; details: for Arrowleaf Sida plant response rating: scale 0 to 100 (0 no effect, 100 complete control)
Description: (§1) Seeds of plant species selected from corn (Zea mays), soybean (Glycine max), velvetleaf (Abutilon theophrasti), lambsquarters (Chenopodium album), wild poinsettia (Euphorbia heterophylla), palmer pigweed (Amaranthus palmeri), waterhemp (common waterhemp, Amaranthus rudis), surinam grass (Brachiaria decumbens), large (Lg) crabgrass (Digitaria sanguinalis), Brazilian crabgrass (Digitaria horizontalis), fall panicum (Panicum dichotomiflorum), giant foxtail (Setaria faberii), green foxtail (Setaria viridis), goosegrass (Eleusine indica), johnsongrass (Sorghum halepense), ragweed (common ragweed, Ambrosia elatior), barnyardgrass (Echinochloa crus-galli), sandbur (southern sandbur, Cenchrus echinatus), arrowleaf sida (Sida rhombifolia), Italian ryegrass (Lolium multiflorum), dayflower (Virginia (VA) dayflower, Commelina virginica), field bindweed (Convolvulus arvensis), morningglory (Ipomoea coccinea), nightshade (eastern black nightshade, Solanum ptycanthum), kochia (Kochia scoparia), yellow nutsedge (Cyperus esculentus), cocklebur (common cocklebur, Xanthium strumarium), smartweed (ladysthumb smartweed, and hairy beggarticks (Bidens pilosa), were planted into a silt loam soil and treated preemergence with test chemicals formulated in a non-phytotoxic solvent mixture which included a surfactant.
(§2) At the same time, plants from these crop and weed species and also horseweed (Canada horseweed, Conyza canadensis), waterhemp_RES1, (ALS & Triazine resistant common waterhemp, Amaranthus rudis), and waterhemp_RES2, (ALS & HPPD resistant common waterhemp, Amaranthus rudis) were planted in pots containing Redi-Earth® planting medium (Scotts Company, 14111 Scottslawn Road, Marysville, Ohio 43041) comprising spaghnum peat moss, vermiculite, wetting agent and starter nutrients were treated with postemergence applications of test chemicals formulated in the same manner. Plants ranged in height from 2 to 18 cm for postemergence treatments (1- to 4-leaf stage). Treated plants and controls were maintained in a greenhouse for 14 to 21 days, after which time all species were compared to controls and visually evaluated. Plant response ratings, summarized in Table E, are based on a scale of 0 to 100 where 0 is no effect and 100 is complete control. A dash (-) response means no test result.

palmer pigweed = format: in vivo, Amaranthus palmeri; details: for Pigweed, Palmer plant response rating: scale 0 to 100 (0 no effect, 100 complete control)
Description: as §1, §2

fall panicum = format: in vivo, Panicum dichotomiflorum; details: for Panicum, Fall plant response rating: scale 0 to 100 (0 no effect, 100 complete control)
Description: as §1, §2

sandbur = format: in vivo, Cenchrus echinatus; details: for Sandbur plant response rating: scale 0 to 100 (0 no effect, 100 complete control)
Description: as §1, §2

large (Lg) crabgrass = format: in vivo, Digitaria sanguinalis; details: for Crabgrass, Large plant response rating: scale 0 to 100 (0 no effect, 100 complete control)
Description: as §1, §2

johnsongrass = format: in vivo, Sorghum halepense; details: for Johnsongrass plant response rating: scale 0 to 100 (0 no effect, 100 complete control)
Description: as §1, §2

lambsquarters = format: in vivo, Chenopodium album; details: for Lambsquarters plant response rating: scale 0 to 100 (0 no effect, 100 complete control)
Description: as §1, §2

kochia = format: in vivo, Kochia scoparia; details: for Kochia plant response rating: scale 0 to 100 (0 no effect, 100 complete control)
Description: as §1, §2

[1] = preemergence, 125 g ai/ha, scale 0 to 100, 0 no effect, 100 complete control
[2] = 125 g ai/ha, scale 0 to 100, 0 no effect, 100 complete control
[3] = 250 g ai/ha, scale 0 to 100, 0 no effect, 100 complete control
[4] = 8 g ai/ha, preemergence, scale 0 to 100, 0 is no effect, 100 is complete control
[5] = 8 g ai/ha, scale 0 to 100, 0 is no effect, 100 is complete control

Cc1cnc(Oc2cccc(C#N)c2-n2cc(C(F)(F)F)cn2)nc1 [Compound 180]
Arrowleaf Sida plant response rating (arrowleaf sida; 31 g ai/ha, preemergence): 15
Arrowleaf Sida plant response rating (arrowleaf sida; 62 g ai/ha, preemergence): 30
Plant response rating, Arrowleaf Sida (arrowleaf sida; [1]): 70
Plant response rating, Arrowleaf Sida (arrowleaf sida; preemergence, 250 g ai/ha, scale 0 to 100, 0 no effect, 100 complete control): 85
Pigweed, Palmer plant response rating (palmer pigweed; 31 g ai/ha): 0
Pigweed, Palmer plant response rating (palmer pigweed; 62 g ai/ha): 0
Plant response rating, Pigweed, Palmer (palmer pigweed; [2]): 75
Plant response rating, Pigweed, Palmer (palmer pigweed; [3]): 90
Panicum, Fall plant response rating (fall panicum; 31 g ai/ha): 95
Panicum, Fall plant response rating (fall panicum; 62 g ai/ha): 100
Plant response rating, Panicum, Fall (fall panicum; [2]): 100
Plant response rating, Panicum, Fall (fall panicum; [3]): 100
Sandbur plant response rating (sandbur; 31 g ai/ha): 0
Sandbur plant response rating (sandbur; 62 g ai/ha): 20
Plant response rating, Sandbur (sandbur; [2]): 75
Plant response rating, Sandbur (sandbur; [3]): 90
Crabgrass, Large plant response rating (large (Lg) crabgrass; 31 g ai/ha): 90
Crabgrass, Large plant response rating (large (Lg) crabgrass; 62 g ai/ha): 98
Plant response rating, Crabgrass, Large (large (Lg) crabgrass; [2]): 100
Plant response rating, Crabgrass, Large (large (Lg) crabgrass; [3]): 100
Johnsongrass plant response rating (johnsongrass; 31 g ai/ha): 0
Johnsongrass plant response rating (johnsongrass; 62 g ai/ha): 50
Plant response rating, Johnsongrass (johnsongrass; [2]): 75
Plant response rating, Johnsongrass (johnsongrass; [3]): 80
Lambsquarters plant response rating (lambsquarters; 31 g ai/ha): 98
Lambsquarters plant response rating (lambsquarters; 62 g ai/ha): 100
Plant response rating, Lambsquarters (lambsquarters; [2]): 100
Plant response rating, Lambsquarters (lambsquarters; [3]): 100
Kochia plant response rating (kochia; 31 g ai/ha): 0
Kochia plant response rating (kochia; 62 g ai/ha): 20
Plant response rating, Kochia (kochia; [2]): 100
Plant response rating, Kochia (kochia; [3]): 100

FC(F)c1cccc(Oc2ncc(Cl)cn2)c1-n1cc(C(F)(F)F)cn1 [Compound 170]
Plant response rating, Arrowleaf Sida (arrowleaf sida; [4]): 0
Arrowleaf Sida plant response rating (arrowleaf sida; 16 g ai/ha, preemergence): 0
Arrowleaf Sida plant response rating (arrowleaf sida; 31 g ai/ha, preemergence): 10
Arrowleaf Sida plant response rating (arrowleaf sida; 62 g ai/ha, preemergence): 90
Plant response rating, Arrowleaf Sida (arrowleaf sida; [1]): 100
Plant response rating, Pigweed, Palmer (palmer pigweed; [5]): 0
Pigweed, Palmer plant response rating (palmer pigweed; 31 g ai/ha): 95
Pigweed, Palmer plant response rating (palmer pigweed; 62 g ai/ha): 100
Plant response rating, Pigweed, Palmer (palmer pigweed; [2]): 100
Plant response rating, Panicum, Fall (fall panicum; [5]): 0
Panicum, Fall plant response rating (fall panicum; 31 g ai/ha): 20
Panicum, Fall plant response rating (fall panicum; 62 g ai/ha): 98
Plant response rating, Panicum, Fall (fall panicum; [2]): 100
Plant response rating, Sandbur (sandbur; [5]): 0
Sandbur plant response rating (sandbur; 31 g ai/ha): 0
Sandbur plant response rating (sandbur; 62 g ai/ha): 30
Plant response rating, Sandbur (sandbur; [2]): 35
Plant response rating, Crabgrass, Large (large (Lg) crabgrass; [5]): 0
Crabgrass, Large plant response rating (large (Lg) crabgrass; 16 g ai/ha): 0
Crabgrass, Large plant response rating (large (Lg) crabgrass; 31 g ai/ha): 70
Crabgrass, Large plant response rating (large (Lg) crabgrass; 62 g ai/ha): 98
Plant response rating, Crabgrass, Large (large (Lg) crabgrass; [2]): 100
Plant response rating, Johnsongrass (johnsongrass; [5]): 15
Johnsongrass plant response rating (johnsongrass; 31 g ai/ha): 15
Johnsongrass plant response rating (johnsongrass; 62 g ai/ha): 25
Plant response rating, Johnsongrass (johnsongrass; [2]): 70
Plant response rating, Lambsquarters (lambsquarters; [5]): 0
Lambsquarters plant response rating (lambsquarters; 31 g ai/ha): 98
Lambsquarters plant response rating (lambsquarters; 62 g ai/ha): 100
Plant response rating, Lambsquarters (lambsquarters; [2]): 100
Plant response rating, Kochia (kochia; [5]): 0
Kochia plant response rating (kochia; 31 g ai/ha): 30
Kochia plant response rating (kochia; 62 g ai/ha): 90
Plant response rating, Kochia (kochia; [2]): 98

Cc1cnc(Oc2cccc(C#N)c2-n2cc(C#N)cn2)nc1 [Compound 90]
Arrowleaf Sida plant response rating (arrowleaf sida; 16 g ai/ha, preemergence): 20
Arrowleaf Sida plant response rating (arrowleaf sida; 31 g ai/ha, preemergence): 50
Plant response rating, Arrowleaf Sida (arrowleaf sida; Preemergence, 62 g ai/ha, scale 0 to 100, 0 no effect, 100 complete control): 75
Plant response rating, Arrowleaf Sida (arrowleaf sida; [1]): 90
Pigweed, Palmer plant response rating (palmer pigweed; 16 g ai/ha): 0
Pigweed, Palmer plant response rating (palmer pigweed; 31 g ai/ha): 0
Pigweed, Palmer plant response rating (palmer pigweed; 62 g ai/ha): 0
Plant response rating, Pigweed, Palmer (palmer pigweed; [2]): 65
Panicum, Fall plant response rating (fall panicum; 16 g ai/ha): 0
Panicum, Fall plant response rating (fall panicum; 31 g ai/ha): 0
Panicum, Fall plant response rating (fall panicum; 62 g ai/ha): 0
Plant response rating, Panicum, Fall (fall panicum; [2]): 80
Sandbur plant response rating (sandbur; 16 g ai/ha): 0
Sandbur plant response rating (sandbur; 31 g ai/ha): 0
Sandbur plant response rating (sandbur; 62 g ai/ha): 0
Plant response rating, Sandbur (sandbur; [2]): 0
Crabgrass, Large plant response rating (large (Lg) crabgrass; 16 g ai/ha): 30
Crabgrass, Large plant response rating (large (Lg) crabgrass; 31 g ai/ha): 40
Crabgrass, Large plant response rating (large (Lg) crabgrass; 62 g ai/ha): 75
Plant response rating, Crabgrass, Large (large (Lg) crabgrass; [2]): 98
Johnsongrass plant response rating (johnsongrass; 16 g ai/ha): 0
Johnsongrass plant response rating (johnsongrass; 31 g ai/ha): 0
Johnsongrass plant response rating (johnsongrass; 62 g ai/ha): 0
Plant response rating, Johnsongrass (johnsongrass; [2]): 15
Lambsquarters plant response rating (lambsquarters; 16 g ai/ha): 5
Lambsquarters plant response rating (lambsquarters; 31 g ai/ha): 75
Lambsquarters plant response rating (lambsquarters; 62 g ai/ha): 50
Plant response rating, Lambsquarters (lambsquarters; [2]): 100
Kochia plant response rating (kochia; 16 g ai/ha): 0
Kochia plant response rating (kochia; 31 g ai/ha): 50
Kochia plant response rating (kochia; 62 g ai/ha): 100
Plant response rating, Kochia (kochia; [2]): 100

NC(=S)c1cccc(Oc2ncc(Cl)cn2)c1-n1cc(Cl)cn1 [Compound 292]
Plant response rating, Arrowleaf Sida (arrowleaf sida; [4]): 0
Arrowleaf Sida plant response rating (arrowleaf sida; 16 g ai/ha, preemergence): 0
Arrowleaf Sida plant response rating (arrowleaf sida; 31 g ai/ha, preemergence): 5
Arrowleaf Sida plant response rating (arrowleaf sida; 62 g ai/ha, preemergence): 5
Plant response rating, Arrowleaf Sida (arrowleaf sida; [1]): 80
Plant response rating, Pigweed, Palmer (palmer pigweed; [5]): 0
Pigweed, Palmer plant response rating (palmer pigweed; 31 g ai/ha): 35
Pigweed, Palmer plant response rating (palmer pigweed; 62 g ai/ha): 100
Plant response rating, Pigweed, Palmer (palmer pigweed; [2]): 100
Plant response rating, Panicum, Fall (fall panicum; [5]): 0
Panicum, Fall plant response rating (fall panicum; 31 g ai/ha): 0
Panicum, Fall plant response rating (fall panicum; 62 g ai/ha): 90
Plant response rating, Panicum, Fall (fall panicum; [2]): 100
Plant response rating, Sandbur (sandbur; [5]): 0
Sandbur plant response rating (sandbur; 31 g ai/ha): 20
Sandbur plant response rating (sandbur; 62 g ai/ha): 0
Plant response rating, Sandbur (sandbur; [2]): 35
Plant response rating, Crabgrass, Large (large (Lg) crabgrass; [5]): 0
Crabgrass, Large plant response rating (large (Lg) crabgrass; 16 g ai/ha): 0
Crabgrass, Large plant response rating (large (Lg) crabgrass; 31 g ai/ha): 20
Crabgrass, Large plant response rating (large (Lg) crabgrass; 62 g ai/ha): 90
Plant response rating, Crabgrass, Large (large (Lg) crabgrass; [2]): 100
Plant response rating, Johnsongrass (johnsongrass; [5]): 0
Johnsongrass plant response rating (johnsongrass; 31 g ai/ha): 15
Johnsongrass plant response rating (johnsongrass; 62 g ai/ha): 20
Plant response rating, Johnsongrass (johnsongrass; [2]): 35
Plant response rating, Lambsquarters (lambsquarters; [5]): 0
Lambsquarters plant response rating (lambsquarters; 31 g ai/ha): 0
Lambsquarters plant response rating (lambsquarters; 62 g ai/ha): 25
Plant response rating, Lambsquarters (lambsquarters; [2]): 100
Plant response rating, Kochia (kochia; [5]): 0
Kochia plant response rating (kochia; 31 g ai/ha): 0
Kochia plant response rating (kochia; 62 g ai/ha): 70
Plant response rating, Kochia (kochia; [2]): 98
